For assay [1], the target named is S1P3 (membranes from EDG3-Ga15-bla HEK293T cells) (Homo sapiens (Human), UniProt Q99500). Kind of assay: Receptor [35S] GTPγS Binding Assay, S1P3. It is filed as biochemical. Conditions: detection limit 31250 nM. On the procedure:
(§1) Receptor [35S] GTPγS Binding Assays
(§2) Compounds were loaded in a 384 FALCON® v-bottom plate (0.5 μl/well in a 3-fold dilution). Membranes prepared from S1P1/CHO cells or EDG3-Ga15-bla HEK293T cells were added to the compound plate (40 μl/well, final protein 3 μg/well) with MULTIDROP®. [^35S]GTP (1250 Ci/mmol, Perkin Elmer) was diluted in assay buffer: 20 mM HEPES, pH7.5, 10 mM MgCl2, 150 mM NaCl, 1 mM EGTA, 1 mM DTT, 10 μM GDP, 0.1% fatty acid free BSA, and 10 μg/ml Saponin to 0.4 nM. 40 μl of the [^35S] GTP solution was added to the compound plate with a final concentration of 0.2 nM. The reaction was kept at room temperature for 45 min. At the end of incubation, all the mixtures in the compound plate were transferred to a 384 well FB filter plates via GPCR robot system. The filter plate was washed with water 4 times by using the modified manifold Embla plate washer and dried at 60° C. for 45 min. 30 μl of MicroScint 20 scintillation fluid was added to each well for counting at Packard TOPCOUNT®. EC50 is defined as the agonist concentration that corresponds to 50% of the Ymax (maximal response) obtained for each individual compound tested.
A smaller value for GTPγS S1P1 EC50 value indicated greater activity for the compound in the GTPγS S1P1 binding assay. A larger value for the GTPγS S1P3 EC50 value indicated less activity in the GTPγS S1P3 binding assay.
A general note: GTPγS resists hydrolysis and so accumulates on activated G proteins.

In a further assay the target is human S1P1 (Homo sapiens (Human), UniProt P21453). Kind of assay: S1P1 Binding Assay (33P-S1P radioligand competition). Particulars: membranes of CHO cells expressing human S1P1, 0.03 nM 33P-S1P; rounded to two digits. On the procedure: Membranes were prepared from CHO cells expressing human S1P1. Cells were dissociated in buffer containing 20 mM HEPES, pH 7.5, 50 mM NaCl, 2 mM EDTA and Protease Inhibitor cocktail (Roche), and disrupted on ice using the Polytron homogenizer. The homogenate was centrifuged at 20,000 rpm (48,000 G) and the supernatant was discarded. The membrane pellets were resuspended in buffer containing 50 mM HEPES, pH 7.5, 100 mM NaCl, 1 mM MgCl2, 2 mM EDTA and stored in aliquots at −80° C. after protein concentration determination.
Sequence of human S1P1 (P21453 whole entry): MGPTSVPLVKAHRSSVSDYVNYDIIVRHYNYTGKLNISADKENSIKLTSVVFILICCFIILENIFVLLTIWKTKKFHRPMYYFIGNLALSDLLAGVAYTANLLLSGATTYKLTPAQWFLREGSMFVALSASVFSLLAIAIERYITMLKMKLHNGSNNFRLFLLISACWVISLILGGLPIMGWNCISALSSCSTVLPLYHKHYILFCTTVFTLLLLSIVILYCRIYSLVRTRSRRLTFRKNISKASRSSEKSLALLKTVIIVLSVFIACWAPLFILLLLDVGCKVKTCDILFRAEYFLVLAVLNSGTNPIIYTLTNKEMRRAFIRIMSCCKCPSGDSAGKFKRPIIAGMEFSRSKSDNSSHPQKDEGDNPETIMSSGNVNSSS
Membranes (2 μg/well) and 0.03 nM final concentration of 33P-S1P ligand (1 mCi/ml, American Radiolabeled Chemicals) were added to the compound plates. Binding was performed for 45 minutes at room temperature, terminated by collecting the membranes onto GF/B filter plates, and radioactivity was measured by TOPCOUNT®. The competition data of the test compounds over a range of concentrations was plotted as percentage inhibition of radioligand specific binding. The IC50 is defined as the concentration of competing ligand needed to reduce specific binding by 50%.
The results in Table A were rounded to two digits.

The target of assay [2] is S1P1 (membranes from S1P1/CHO cells) (Homo sapiens (Human), UniProt P21453). Description: Receptor [35S] GTPγS Binding Assay, S1P1. It is filed as biochemical. Conditions: for EC50: S1P1/CHO membranes; for GTPγS S1P3/S1P1 (ratio of GTPγS S1P3 EC50 to GTPγS S1P1 EC50): calculated from Table B, S1P3 detection limit 31250 nM. On the procedure:
as §1, §2
A larger value for the GTPγS S1P3 EC50 value indicated less activity in the GTPγS S1P3 binding assay.

The test system of assay [3] is circulating blood lymphocytes. Kind of assay: Blood Lymphocyte Reduction Assay (BLR) in Rodents. It is filed as in vivo. Particulars: Lewis rats, oral, vs vehicle group. On the procedure: Blood Lymphocyte Reduction Assay (BLR) in Rodents
Lewis rats were dosed orally with test article (as a solution or suspension in the vehicle) or vehicle alone (polyethylene glycol 300, “PEG300”). Blood was drawn at 4 hr by retro-orbital bleeding. Blood lymphocyte counts were determined on an ADVIA® 120 Hematology Analyzer (Siemens Healthcare Diagnostics). The results were measured as a reduction in the percentage of circulating lymphocytes as compared to the vehicle treated group at the 4 hr measurement. The results represent the average results of all animals within each treatment group (n=3-4).
The following examples were tested in the Blood Lymphocyte Reduction assay (BLR) described herein above and the results are shown in Table D for rats.

The structures appear in SMILES notation. Marks after values point to notes of the source that are not given here.

Sequence of S1P1 (membranes from S1P1/CHO cells) (P21453 whole entry): as above
Sequence of S1P3 (membranes from EDG3-Ga15-bla HEK293T cells) (Q99500 whole entry): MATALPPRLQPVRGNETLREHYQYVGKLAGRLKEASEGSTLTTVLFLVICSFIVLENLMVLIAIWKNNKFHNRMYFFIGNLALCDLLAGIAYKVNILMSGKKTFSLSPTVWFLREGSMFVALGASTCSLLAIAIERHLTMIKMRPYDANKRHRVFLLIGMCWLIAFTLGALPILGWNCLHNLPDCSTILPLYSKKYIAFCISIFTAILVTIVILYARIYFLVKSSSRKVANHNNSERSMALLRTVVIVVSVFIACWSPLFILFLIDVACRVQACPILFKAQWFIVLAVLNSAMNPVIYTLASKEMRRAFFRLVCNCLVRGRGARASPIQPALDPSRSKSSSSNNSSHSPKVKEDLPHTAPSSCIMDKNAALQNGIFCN

With `N[C@@H]1COc2cc(-c3noc(-c4onc(-c5ccccc5)c4C(F)(F)F)n3)ccc2[C@H]1O` (racemic) [Example 4, (3R*,4R*)-3-amino-7-(5-(3-phenyl-4-(trifluoromethyl)isoxazol-5-yl)-1,2,4-oxadiazol-3-yl)chroman-4-ol], the EC50 in assay [1] is 13000 nM; in assay [2], 80 nM. For the same compound, the IC50 at human S1P1 is 23 nM.
Regarding `O=C(O)CCN[C@H]1COc2cc(-c3noc(-c4onc(-c5ccccc5)c4C(F)(F)F)n3)ccc2[C@@H]1O` (racemic) [Example 5, 3-((3R*,4R*)-4-hydroxy-7-(5-(3-phenyl-4-(trifluoromethyl)isoxazol-5-yl)-1,2,4-oxadiazol-3-yl)chroman-3-ylamino)propanoic acid], the EC50 in assay [1] was found to be 25000 nM.
Turning to `N[C@@H]1COc2cc(-c3noc(-c4onc(-c5ccccc5)c4C(F)(F)F)n3)ccc2[C@H]1O` (relative stereo) [Example 4, (3R*,4R*)-3-amino-7-(5-(3-phenyl-4-(trifluoromethyl)isoxazol-5-yl)-1,2,4-oxadiazol-3-yl)chroman-4-ol], the “GTPγS S1P3/S1P1 (ratio of GTPγS S1P3 EC50 to GTPγS S1P1 EC50)” value in assay [2] is reported as 160.
`CCOC(=O)C1CCCC(N[C@@H]2COc3cc(-c4noc(-c5onc(-c6ccccc6)c5C(F)(F)F)n4)ccc3[C@@H]2O)C1` (relative stereo) [Example 13, ethyl 3-((3R*,4S*)-4-hydroxy-7-(5-(3-phenyl-4-(trifluoromethyl)isoxazol-5-yl)-1,2,4-oxadiazol-3-yl)chroman-3-ylamino)cyclohexanecarboxylate] had an EC50 in assay [1] of over 31000 nM. The compound also gave an IC50 on human S1P1 of 630 nM. For the same compound, in assay [2], the EC50 was found to be 160 nM and the “GTPγS S1P3/S1P1 (ratio of GTPγS S1P3 EC50 to GTPγS S1P1 EC50)” value is > 200*.
Taken in the same sequence, the figures for `O=C(O)CC1CCCN([C@@H]2COc3cc(-c4noc(-c5onc(-c6ccccc6)c5C(F)(F)F)n4)ccc3[C@@H]2O)C1` (single isomer, unassigned) [Example 50] were 24000 nM, 57 nM, 27 nM and 870.
The like results for `N[C@@H]1COc2cc(-c3noc(-c4onc(-c5ccccc5)c4C(F)(F)F)n3)ccc2[C@@H]1O` [Example 9, (3R,4S)-3-Amino-7-(5-(3-phenyl-4-(trifluoromethyl)isoxazol-5-yl)-1,2,4-oxadiazol-3-yl)chroman-4-ol] were, in that order, 8600 nM, 39 nM, 33 nM and 260.
On to `O=C(O)[C@H]1C[C@@H](N[C@H]2COc3cc(-c4noc(-c5onc(-c6ccccc6)c5C(F)(F)F)n4)ccc3[C@H]2O)C1` [Example 25, (1R,3S)-3-((3S,4R)-4-hydroxy-7-(5-(3-phenyl-4-(trifluoromethyl)isoxazol-5-yl)-1,2,4-oxadiazol-3-yl)chroman-3-ylamino)cyclobutanecarboxylic acid], for which it took 12000 nM to reach a half-maximal effect in assay [1] (EC50). The “% Reduction in Lymphocytes at 4 hr.” value in assay [3] (3 mg/kg) is given as 93%.
In the case of `O=C(O)C1(CN[C@@H]2COc3cc(-c4noc(-c5onc(-c6ccccc6)c5C(F)(F)F)n4)ccc3[C@@H]2O)CC1` [Example 30, 1-(((3R,4S)-4-hydroxy-7-(5-(3-phenyl-4-(trifluoromethyl)isoxazol-5-yl)-1,2,4-oxadiazol-3-yl)chroman-3-ylamino)methyl)cyclopropanecarboxylic acid], the EC50 in assay [1] came to 8000 nM; in assay [2] it was 6.5 nM. On human S1P1, the IC50 amounted to 13 nM. Also, the “GTPγS S1P3/S1P1 (ratio of GTPγS S1P3 EC50 to GTPγS S1P1 EC50)” value in assay [2] is 1200.
The like results for `O=C(O)C1(CN[C@@H]2COc3cc(-c4noc(-c5onc(-c6ccccc6)c5C(F)(F)F)n4)ccc3[C@@H]2O)CCCCC1` [Example 39, 1-(((3R,4S)-4-hydroxy-7-(5-(3-phenyl-4-(trifluoromethyl)isoxazol-5-yl)-1,2,4-oxadiazol-3-yl)chroman-3-ylamino)methyl)cyclohexanecarboxylic acid] were, in that order, over 31000 nM, 85 nM, 541 nM and > 370*.
Turning to `O=C(O)C1(CN[C@@H]2COc3cc(-c4noc(-c5onc(-c6ccccc6)c5C(F)(F)F)n4)ccc3[C@@H]2O)CCC1` [Example 41, 1-(((3R,4S)-4-hydroxy-7-(5-(3-phenyl-4-(trifluoromethyl)isoxazol-5-yl)-1,2,4-oxadiazol-3-yl)chroman-3-ylamino)methyl)cyclobutanecarboxylic acid], the results for the EC50 in assay [1] and in assay [2] were 8400 nM and 16 nM, respectively. Also, the “% Reduction in Lymphocytes at 4 hr.” value in assay [3] (0.5 mg/kg) was 11%. Moreover, the IC50 on human S1P1 was determined as 20 nM. In assay [2], the “GTPγS S1P3/S1P1 (ratio of GTPγS S1P3 EC50 to GTPγS S1P1 EC50)” value was 510.
Take `O=C(O)CCN[C@@H]1COc2cc(-c3noc(-c4onc(-c5ccccc5)c4C(F)(F)F)n3)ccc2[C@@H]1O` [Example 53, 3-((3R,4S)-4-Hydroxy-7-(5-(3-phenyl-4-(trifluoromethyl)isoxazol-5-yl)-1,2,4-oxadiazol-3-yl)chroman-3-ylamino)propanoic acid]: the EC50 in assay [1] is 22000 nM.
In turn, `O=C(O)[C@H]1CCC[C@H](N[C@@H]2COc3cc(-c4noc(-c5onc(-c6ccccc6)c5C(F)(F)F)n4)ccc3[C@@H]2O)C1` [Example 57, (1S,3S)-3-((3R,4S)-4-hydroxy-7-(5-(3-phenyl-4-(trifluoromethyl)isoxazol-5-yl)-1,2,4-oxadiazol-3-yl)chroman-3-ylamino)cyclohexanecarboxylic acid] came in with an EC50 in assay [1] of 7300 nM. The “% Reduction in Lymphocytes at 4 hr.” value in assay [3] (0.5 mg/kg) came to 69%. This compound also gave an IC50 on human S1P1 of 0.7 nM. Moreover, in assay [2], a half-maximal effect (EC50) was put at 1 nM and the “GTPγS S1P3/S1P1 (ratio of GTPγS S1P3 EC50 to GTPγS S1P1 EC50)” value is reported as 7300.
`O=C(O)[C@@H]1CCC[C@@H](N[C@@H]2COc3cc(-c4noc(-c5onc(-c6ccccc6)c5C(F)(F)F)n4)ccc3[C@@H]2O)C1` [Example 65, (1R,3R)-3-((3R,4S)-4-hydroxy-7-(5-(3-phenyl-4-(trifluoromethyl)isoxazol-5-yl)-1,2,4-oxadiazol-3-yl)chroman-3-ylamino)cyclohexanecarboxylic acid]: the EC50 in assay [1] was 11000 nM. The “% Reduction in Lymphocytes at 4 hr.” value in assay [3] (0.5 mg/kg) was determined as 55%. Moreover, on human S1P1, the IC50 came out at 6.6 nM. Moreover, in assay [2], the EC50 amounted to 1.1 nM and the “GTPγS S1P3/S1P1 (ratio of GTPγS S1P3 EC50 to GTPγS S1P1 EC50)” value was 9600.
In the case of `O=C(O)CN[C@@H]1COc2cc(-c3noc(-c4onc(-c5ccccc5)c4C(F)(F)F)n3)ccc2[C@@H]1O` [Example 68, 2-((3R,4S)-4-hydroxy-7-(5-(3-phenyl-4-(trifluoromethyl)isoxazol-5-yl)-1,2,4-oxadiazol-3-yl)chroman-3-ylamino)acetic acid], the EC50 stood at 5200 nM in assay [1] and 5.4 nM in assay [2]. The same compound gave an IC50 at human S1P1 of 3.8 nM. In assay [2], the “GTPγS S1P3/S1P1 (ratio of GTPγS S1P3 EC50 to GTPγS S1P1 EC50)” value is recorded as 960.

The term EC50 denotes the concentration needed to bring the measured effect to its halfway point. Read a high EC50 as a less potent agent. Usually IC50 stands for the midpoint of a concentration-inhibition curve.

These data come from patent US8629282B2, “Heterocyclic compounds as S1P1 agonists for the treatment of autoimmune and vascular diseases” (Bristol-Myers Squibb Company, priority 2010, dated 2014).
